From paper PMC6001375, “CLERK is a novel receptor kinase required for sensing of root-active CLE peptides in Arabidopsis” (Development (Cambridge, England), 2018)
Where no end group is shown, it is not given here. [ ]: non-standard residue; d: D form. Hyp = O=C(O)[C@@H]1C[C@@H](O)CN1

Tests used:
[1] = tested on: PXY ectodomain with NIK1/2/3 ectodomains; experiment: Analytical size-exclusion chromatography, PXY + NIK1/2/3 ectodomains; type: binding, Arabidopsis thaliana; conditions: Fig. S3F; 50 µM peptide; pH 5.0
Protocol: (§1) Isolation of recombinant proteins and analytical gel filtrations were carried out as described previously ([Hazak et al., 2017]) with small adjustments. The coding sequences for BAM1-ECD (amino acids 20-637), BAM3-ECD (30-651), PXY-ECD (30-647), NIK1-ECD (32-248), NIK2-ECD (33-248), NIK3-ECD (26-238), CLERK-ECD (28-236) and At5G63710-ECD (51-224) were amplified from Arabidopsis thaliana cDNA using PfuX7 polymerase. All ECD-coding sequences were then cloned into a modified pFAST-BAC1 vector (Geneva Biotech) by GIBSON cloning, resulting in the addition of the azurocidin signal peptide sequence to the 5′-end, and of a 2×-STREP-9×HIS tag to the 3′-end of the ECD sequences. These plasmids, after being confirmed by sequencing, were transformed into Escherichia coli DH10MultiBac (Geneva Biotech) followed by the extraction of the resulting bacmids. Transfection of the bacmids into Spodoptera frugiperda Sf9 cells with Profectin (AB Vector) was carried out to produce and amplify the respective virus. Recombinant secreted expression of the proteins was carried out by addition of virus to Trichoplusia ni Tnao38 cells to reach a viral multiplicity of 1 and incubation of the cells for 3 days. […] Concentrations of the pure proteins were assessed by measuring their absorbance at 280 nm (NanoDrop Lite; Thermo Scientific) and subsequent correction with their respective extinction coefficient. […]

[2] = tested on: PHLOEM INTERCALATED WITH XYLEM (PXY); conditions: ref Etchells and Turner, 2010; Fisher and Turner, 2007; Hirakawa et al., 2008; Morita et al., 2016; cited from earlier work
Text: (§2) The endogenous CLAVATA3/EMBRYO SURROUNDING REGION (CLE) peptides of plants are secreted as propeptides and processed to yield bioactive 12-14 amino acid long ligands ([Cock and McCormick, 2001]; [Ito et al., 2006]; [Kondo et al., 2006]). The Arabidopsis thaliana genome contains 32 CLE genes, which encode 27 distinct CLE peptides ([Goad et al., 2016]; [Ito et al., 2006]; [Strabala et al., 2006]). Exogenous application of chemically synthesized CLE peptides at nanomolar concentrations frequently suppresses Arabidopsis root growth in tissue culture ([Depuydt et al., 2013]; [Fiers et al., 2005]; [ ...

[3] = tested on: PXY ectodomain with CLERK/At5g63710 ectodomains; experiment: Analytical size-exclusion chromatography, PXY + CLERK/At5g63710 ectodomains; type: binding, Arabidopsis thaliana; conditions: 50 µM peptide
Protocol: as §1

SERKs with PXY = conditions: ref Hazak et al., 2017; Santiago et al., 2016; Zhang et al., 2016a,b; cited from earlier work
Text: In numerous cases, ligand sensing by LRR-RKs requires interaction with co-receptor kinases ([Brandt and Hothorn, 2016]; [Hazak and Hardtke, 2016]; [Katsir et al., 2011]; [Li and Tax, 2013]). […] SERKs have also been implicated in PXY-mediated CLE41/44 signaling, although binding of PXY-CLE41/44 to ...

CLAVATA 1 (CLV1) = conditions: ref Brand et al., 2000; Clark et al., 1995; Fletcher et al., 1999; cited from earlier work
Text: as §2

[4] = biological target: T1, BARELY ANY MERISTEM 1 (BAM1) ectodomain (Arabidopsis thaliana, UniProt O49545 20-637); experiment: ITC
T1 chain: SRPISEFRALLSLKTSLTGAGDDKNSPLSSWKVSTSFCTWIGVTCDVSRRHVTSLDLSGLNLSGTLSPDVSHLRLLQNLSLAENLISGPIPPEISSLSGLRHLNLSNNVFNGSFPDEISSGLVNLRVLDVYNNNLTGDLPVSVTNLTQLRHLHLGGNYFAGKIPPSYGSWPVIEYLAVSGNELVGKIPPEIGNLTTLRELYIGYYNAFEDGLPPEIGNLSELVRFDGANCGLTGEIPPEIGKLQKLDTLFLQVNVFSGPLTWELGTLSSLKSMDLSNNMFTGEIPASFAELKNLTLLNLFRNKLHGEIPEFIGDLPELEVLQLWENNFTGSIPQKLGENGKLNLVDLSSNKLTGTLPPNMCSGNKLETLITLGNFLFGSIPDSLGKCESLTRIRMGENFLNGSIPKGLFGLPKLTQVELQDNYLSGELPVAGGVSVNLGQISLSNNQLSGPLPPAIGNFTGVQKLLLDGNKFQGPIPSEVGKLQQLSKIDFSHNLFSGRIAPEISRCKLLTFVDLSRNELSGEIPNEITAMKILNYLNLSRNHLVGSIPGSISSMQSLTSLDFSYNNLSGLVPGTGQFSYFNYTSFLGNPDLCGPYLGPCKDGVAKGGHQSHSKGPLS

[5] = biological target: T2, BARELY ANY MERISTEM 1 (BAM1) ectodomain (Arabidopsis thaliana, UniProt O49545 20-637); experiment: ITC; Nano ITC, 25°C, 20 mM citrate (pH 5.0), 150 mM NaCl; peptide in the syringe, ectodomain in the cell: 400 µM CLE26 or CLE45 into 30 µM CLERK-ECD; 80 µM CLE9 into 13.8 µM BAM1-ECD; conditions: both partners purified
T2 construct: BAM1, LRR receptor kinase of Arabidopsis thaliana, extracellular domain, amino acids 20-637; The azurocidin signal peptide was added at the N-terminus for secretion; also called BAM1-ECD
T2 sequence (looked up): T1 chain

## HEVPSGPNPISN [CLE41, identical CLE41 and CLE44 peptides, perceived by PXY]
[1]
  Elution of PXY ectodomain with NIK1/2/3 ectodomains: elute as monomers
[2]
  Perception by PXY: perceives
[3]; Fig. S3C, pH 5.0
  Elution of PXY ectodomain with CLERK/At5g63710 ectodomains: elute as monomers
[3]; gel filtration, 20 mM citrate (pH 5.0), 150 mM NaCl
  Peptide-dependent binding of CLERK ectodomain to PXY ectodomain: Neither did CLERK ectodomain bind to the BAM1 ectodomain or the PXY ectodomain
SERKs with PXY
  Binding of PXY-CLE41/44 to SERKs: comparatively weak

## CLV3: prototypical CLV3 peptide, directly bound by CLV1 to regulate stem cell homeostasis in shoot meristems (RTVPSGPDPLHHH; not fully specified; ends and bridges not checked; UniProt Q9XF04 70-82, looked up)
CLAVATA 1 (CLV1)
  Binding to CLV1: directly binds

B1: CLE9 peptide (peptide)
peptide: RLV[Hyp]SG[Hyp]NPLHN
notes: CLE9 peptide of Arabidopsis thaliana, 12 residues; source: synthetic peptide (PSL GmbH)
[4]
  Kd: 12.7 nM
[5]
  binding result: binds
